US20260266804A1, “MODEL FOR ANALYZING INFLAMMATION AND USES THEREOF” (Technion Research & Development Foundation Limited, priority 2022, published 2026)
“Also recorded” adds a separate entry of the source.

Key:
Caco2 cells = assay: SNAP treatment of 55Fe labeled Caco2 cells, CPM in cells and medium; type: cell-based, human; conditions: SNAP induced Caco2 cells
Experimental: (§1) Day before SNAP (Sigma) treatment, Caco2 cells were cultured in working medium with MEM (Sigma) supplemented with 20% heat inactivated FCS (Biological Industries), ferric ammonium citrate (Sigma), non-essential amino acids (Gibco), sodium pyruvate (Gibco), L-glutamine (Biological Industries) and Pen.-strep. (Biological Industries) in an oxygen modified incubator (6% O2) at 37° C. and 5% CO2.
(§2) SNAP was added to the cells for 22 hours in two sequential doses 1 mM each. First dose was added for 6 hours, 20% of the medium was then collected and replaced with working medium containing 5 mM SNAP for additional incubation of […].
Cells were given medium containing transferrin loaded with labeled iron. First labeled Ferric nitrilotriacetate (Fe-(NTA)2) was prepared, by mixing 5 parts of […] (pH=3) in 0.9% NaCl, with 4 parts of 100 mM of ferric chloride solution (FeCl3) in 0.1M HCl and one part of ^55Fe labeled ferric chloride solution (^55FeCl3). The mixture was incubated for 30 minutes at RT. Next, 125 parts of 1 mM human Apotransferrin (Kamada) solution in HBS was mixed with 12.5 parts of NaHCO3 and 10 parts of the labeled Ferric nitrilotriacetate (50 mM). The mixture was then added to the growth medium, 147.5 ul of labeled transferrin was added to 2 ml of growth medium. Cells were labeled with ^55Fe for ON. Then the medium was removed and cells were washed with PBS. […]

Caco-2 cells = assay: SNAP treatment of Caco2 cells, IL-8 mRNA by qRT-PCR; type: cell-based, human; conditions: SNAP two sequential doses, 22 hours
Experimental: as §1, §2
(§3) RNA was extracted using the Trizol reagent (Invitrogen). Cells were harvested directly with Trizol, whereas tissues were first ground in liquid-N2 cooled mortars then incubated with Trizol following manufacturer's instructions. Isolated RNA samples were submitted to DNase treatment using DNase I recombinant, RNase-free kit (Roche). cDNA was prepared using cDNA Reverse Transcription Kit (Quanta biosciences), and the RT-PCRs were performed using SYBR master mix (Applied Biosystems). The delta Ct method was used to calculate a relative expression of the target gene in comparison to topoisomerase 1 for epithelial cells and ubiquitin for macrophage genes.

[1] = test system: epithelial pro-inflammatory markers (Caco2 cells); assay: Pre-conditioning of Caco2 cells with tempol, then Raw 264.7 cells and LPS, qRT-PCR; type: cell-based, human; conditions: tempol 3 mM 16 hours pre-conditioning, then Raw 264.7 and LPS 6 hours
Experimental: Representative SDS-PAGE gels of subcellular fractions, cytosolic nuclear soluble and nuclear chromatic bound fractions (upper). Protein levels were quantified with Image J (lower), values presented as mean±SD. n=4. * DFO 100 Um for 24 hours. C-E. Co-culture of epithelial cells and macrophages with targeted deletion of IRP1 (MΦ Irp1^−/−) didn't restore iron homeostasis in the co-culture upon LPS stimulation. Epithelial cells were co-cultured with BMDM isolated from C57BL/6 mice (MΦ wt) or from IRP^−/− on C57BL/6 background mice (MΦ Irp1^−/−) as described. LPS 200 ng/ml was added for 24 hours. […] Representative immunoblot of FtH. n=8. […] Representative blot of IRP2. n=8. E. Aconitase activities were decreased in epithelial cells and macrophages in EC-MΦ wt and EC-MΦ Irp1^−/− co-cultures. Representative aconitase in-gel assay. n=4. […] Caco2 cells were cultured with tempol (3 mM) for 16 hours, cells were then washed, and Raw 264.7 cells were added. When Raw 264.7 cells were adhered, the excess of cells was washed away and LPS was added for 6 hours. Expression levels were measured by qRT-PCR. n=6.
RNA was extracted using the Trizol reagent (Invitrogen). Cells were harvested directly with Trizol, whereas tissues were first ground in liquid-N2 cooled mortars then incubated with Trizol following manufacturer's instructions. […]

ECs-Raw 264.7 co-culture = assay: Tempol in ECs-Raw 264.7 co-culture, pro-inflammatory markers by RTqPCR; type: cell-based, human and mouse; conditions: Tempol 3 mM alone, different times, no LPS
Experimental: (§4) Day before co-culture assembly Caco2 cells were cultivated in an oxygen modified incubator (6% O2). Confluent co-cultures of epithelial cells and macrophages were obtained by seeding 2×10^5 cells per cm^2 surface area. Cell culture dishes employed were 10 cm or 6 well. For Caco2-Raw 264.7 co-cultures, Caco2 cells were seeded, after adherence Raw264.7 cells were added accordingly. For Caco2-BMDM co-cultures, on the six day of bone marrow extraction the cells were plated as previously mentioned, and Caco2 cells were added to them accordingly. Co-cultures were cultivated in an oxygen modified incubator (6% O2) at 37° C. and 5% CO2. Co-culture ratios used were 1:1 or 2:1 or 1:2.
as §3

[2] = test system: aconitase (IRP1 activation); assay: Tempol in ECs-Raw 264.7 co-culture, aconitase in-gel activity; type: cell-based; conditions: Tempol 3 mM, direct correlation with incubation time
Experimental: as §4
Mitochondrial and cytosolic aconitase activities were assayed in parallel in cell lysates after electrophoretic separation as previously described [Tong et al. Cell metabolism 3, 199-210 (2006)]. Protein concentrations were determined using the Bradford assay (BIO-RAD, Hercules, California). Aconitase activity was detected chromogenically by incubating the gels in 100 mM Tris pH 8, 1 mM NADP, 2.5 mM cis-aconitic acid, 1.2 mM 3-(4,5-dimethylthiazol-2-yl)-2,5-diphenyl tetrazolium bromide, 0.3 mM phenazine methosulfate, 5 mM MgCl2 and 5 Units/ml isocitrate dehydrogenase. All chemicals were purchased from Sigma Missouri.

CC(=O)N[C@H](C(=O)O)C(C)(C)SN=O (racemic) [SNAP, S-Nitroso-N-Acetylpenicillamine]
intracellular iron (Caco2 cells; 55Fe CPM in the cells): reduced | extracellular iron (Caco2 cells; 55Fe CPM in the medium): increased | IL-8 mRNA expression levels / inflammatory response in Caco-2 cells alone (Caco-2 cells): showed an inflammatory response; also recorded: elevated

CC1(C)CC(O)CC(C)(C)N1[O] [tempol]
expression levels of selected epithelial pro-inflammatory markers [1]: significantly increased | transcription levels of pro-inflammatory markers / inflammatory response (ECs-Raw 264.7 co-culture): did not elicit any inflammatory response; also recorded: increased trend that was not statistically significant | aconitase activities [2]: decreased
